Like-named read-outs stand apart in the source and are kept apart here.

We go through twelve molecules from patent publication US20250257060A1, “OXADIAZOLE COMPOUND, PHARMACEUTICAL COMPOSITION COMPRISING SAME, AND USE THEREOF” (SUZHOU GENHOUSE BIO CO., LTD., priority 2022, published 2025).

Data set [1] can be described thus: Phase I metabolic stability in human liver microsomes (HLMs). Type of data set: in vitro ADME, humans. Particulars: HLM. The procedure: (§1) Phase I metabolic stability of the test compounds in liver microsomes of CD-1 mice (MLMs), Sprague-Dawley rats (RLMs), beagle dogs (DLMs), cynomolgus monkeys (CLMs), and humans (HLMs) was evaluated.
(§2) The animal and human liver microsomes used in the test system were purchased from Xenotech, Corning, or other qualified suppliers and stored in a freezer at a temperature below −60° C. prior to use.
(§3) The test samples and control compounds were separately incubated with animal and human liver microsomes at 37±1° C. for a period of incubation time up to 60 min. The samples were removed at the indicated time points, and the reaction was stopped with acetonitrile or other organic solvents containing an internal standard. After centrifugation, the resulting supernatants were assayed by liquid chromatography-tandem mass spectrometry (LC-MS/MS).
(§4) 73.21 g of dipotassium hydrogenphosphate trihydrate and 10.78 g of potassium dihydrogenphosphate were dissolved in 4000 mL of ultrapure water. The solution was adjusted to pH 7.40±0.10 with 10% phosphoric acid or 1 M potassium hydroxide to make a final concentration of 100 mM.
(§5) The test sample powder was prepared into a stock solution at a certain concentration with DMSO or other organic solvents, which was then further diluted with a proper organic solvent.
(§6) Microsomes of each species were diluted into a 2× working solution with a 100 mM potassium phosphate buffer. The final concentration of the microsomes in the reaction system was 0.5 mg/mL.
(§7) An appropriate amount of nicotinamide adenine dinucleotide phosphate (NADP) and isocitric acid (ISO) powder was weighed out, dissolved in a magnesium chloride solution, and shaken and mixed well. An appropriate amount of isocitrate dehydrogenase (IDH) was added, and the mixture was mixed well by gently turning upside down. The final concentrations in the reaction system were: 1 mM NADP, 1 mM magnesium chloride, 6 mM ISO, and 1 unit/mL IDH.
(§8) Incubation was performed in a 96-well plate. Eight incubation plates were prepared and designated T0, T5, T15, T30, T45, T60, Blank60, and NCF60, respectively. The first 6 plates corresponded to reaction time points of 0, 5, 15, 30, 45, and 60 min, respectively. No test sample or control compound was added to the Blank60 plate, and samples were taken after 60 min of incubation. In the NCF60 plate, incubation was performed for 60 min using the potassium phosphate buffer instead of the NADPH regeneration system solution. Three replicates were made for samples in all conditions.
(§9) The microsomes and the test sample or control compound were mixed, and then the incubation plates Blank60, T5, T15, T30, T45, and T60 except for TO and NCF60 were placed in a 37° C. water bath for pre-incubation for about 10 min. In the incubation plate TO, a stop solution was first added, followed by addition of the NADPH regeneration system working solution, and 98 μL of the potassium phosphate buffer was added to each sample well of the incubation plate NCF60 to initiate the reaction. After the pre-incubations of the incubation plates Blank60, T5, T15, T30, T45, and T60 were completed, 98 μL of the NADPH regeneration system working solution was added to each sample well to initiate the reaction. The reaction temperature was 37±1° C., the final volume of the reaction was 200 μL, and the reaction system included 0.5 mg/mL microsomes, […], 1 mM NADP, 6 mM ISO, and 1 unit/mL IDH.
(§10) At 5 min, 15 min, 30 min, 45 min, and 60 min, a cold stop solution containing an internal standard was added to the reaction plate to stop the reaction.
(§11) All the reaction plates after the reaction was stopped were shaken well and centrifuged at 3220×g at 4° C. for 20 min. After the supernatant was diluted according to a certain proportion, LC-MS/MS analysis was performed.
(§12) Sample analysis was performed by the liquid chromatography-tandem mass spectrometry (LC-MS/MS) method without standard curves and quality control samples. […]

Data set [2] is described as follows: Pharmacokinetic test in mice (IV and PO). The format is in vivo, BALB/c mice. Particulars: for Cmax / AUC(0-inf) / AUC(0-t) / MRT inf / Vd / Tmax: BALB/c, mouse, plasma; for MRT inf: read-out: MRT(0-∞); for Vd: read-out: Vz. The protocol:
In this example, the pharmacokinetic behavior of the compounds after intravenous injection (IV) and intragastric (PO) administration in BALB/c mice was tested.
On the day of administration, mice were weighed for actual body weight and the administration volume was calculated. Each compound was tested in two groups with 3 mice in each group, one group administered by single intravenous injection and the other group of mice by single intragastric administration. Whole blood samples were collected via the orbit at prescribed time points (0.25 h, 0.5 h, 1 h, 2 h, 4 h, 8 h, and 24 h after administration). After blood sample collection, the samples were immediately transferred to labeled commercial sample tubes containing K2-EDTA (0.85-1.15 mg), followed by centrifugation (3200×g, 4° C., 10 min) and plasma collection. The plasma was transferred to a pre-cooled centrifuge tube, frozen in dry ice, and stored in an ultra-low temperature freezer at −60° C. or lower until the LC-MS/MS analysis.
Plasma concentrations were determined by a LC-MS/MS method. Plasma drug concentration data for compounds 1 and 2 were processed in a non-compartmental model using WinNonlin Version 6.3 (Pharsight, Mountain View, CA) pharmacokinetic software. The relevant pharmacokinetic parameters were calculated by a linear logarithmic trapezoid method.

Data set [3] can be described thus: Phase I metabolic stability in mouse liver microsomes (MLMs). The format is in vitro ADME, CD-1 mice. Particulars: MLM. The procedure: as §1, §2, §3, §4, §5, §6, §7, §8, §9, §10, §11, §12
Data set [4] in a line: Phase I metabolic stability in rat liver microsomes (RLMs). The format is in vitro ADME, Sprague-Dawley rats. Particulars: RLM. The procedure: as §1, §2, §3, §4, §5, §6, §7, §8, §9, §10, §11, §12
A further data set deals with HDAC6 (Homo sapiens (Human), UniProt Q9UBN7). The experiment in a line: HDAC6 enzymatic activity assay. Type of data set: biochemical. The protocol: The inhibitory activity of the compounds of the present application against HDAC6 was evaluated by an enzymatic activity assay. HDAC6 (Abcam), test compounds, and a 20 µM substrate solution (Ac-GAK(Ac)-AMC) were each added to a 384-well plate, and the plate was incubated at 37° C. for 30 min. […] and […] were added, and the plate was incubated at room temperature for 15 min. […] IC50 was obtained by fitting using GraphPadPrism 7.0 software.

The nature of data set [5]: Brain-to-blood drug concentration ratio of mice. The format is in vivo. Particulars: mouse, 5 mg/kg PO, 2 h; for Kp at 2 h: brain/plasma. The procedure:
On the day of administration, mice were weighed for actual body weight and the administration volume was calculated. In each group of 9 mice, the compound was administered by single intravenous (IV) injection or intragastric (PO) administration. Whole blood samples were collected via the orbit at prescribed time points. After blood sample collection, the samples were immediately transferred to labeled commercial sample tubes containing K2-EDTA (0.85-1.15 mg), followed by centrifugation (3200×g, 4° C., 10 min) and plasma collection. The plasma was transferred to a pre-cooled centrifuge tube, frozen in dry ice, and stored in an ultra-low temperature freezer at −60° C. or lower until the LC-MS/MS analysis. 20 μL of a plasma sample or brain tissue homogenate was taken and 80 μL of an internal standard solution (50 ng/mL solution of propafenone in acetonitrile) was added. The plate was sealed with a film sealer at 165° C., shaken on a micro oscillator (maximum vibration speed) for 10 min, and centrifuged at 4000 rpm for 20 min using a low-speed benchtop centrifuge, 10 μL of supernatant was transferred and 90 μL of acetonitrile was added. The mixture was vortexed and mixed well, and then the plate was sealed with the film sealer at 165° C. After the mixture was vortexed and mixed well, 1 μL of supernatant was taken for LC-MS/MS analysis. Plasma drug concentration data for the compounds were processed in a non-compartmental model using WinNonlin Version 6.3 (Pharsight, Mountain View, CA) pharmacokinetic software. The relevant pharmacokinetic parameters were calculated by a linear logarithmic trapezoid method.
Data processing: brain-to-blood drug concentration ratio of mice at the same time point=drug concentration in brain tissue/drug concentration in plasma

Setting [6] is: buffer instead of NADPH regeneration system, 60 min.
Setting [7] is: human, liver microsomes, pH 7.4.
The mark [8] stands for this setting: CD-1, mouse, liver microsomes, pH 7.4.
[9] abbreviates: Sprague-Dawley, rat, liver microsomes, pH 7.4.
Where [10] appears, read: brain, read-out: Brain drug concentration.
Where [11] appears, read: plasma, read-out: Blood drug concentration.

Sequence of HDAC6 (Q9UBN7 whole entry): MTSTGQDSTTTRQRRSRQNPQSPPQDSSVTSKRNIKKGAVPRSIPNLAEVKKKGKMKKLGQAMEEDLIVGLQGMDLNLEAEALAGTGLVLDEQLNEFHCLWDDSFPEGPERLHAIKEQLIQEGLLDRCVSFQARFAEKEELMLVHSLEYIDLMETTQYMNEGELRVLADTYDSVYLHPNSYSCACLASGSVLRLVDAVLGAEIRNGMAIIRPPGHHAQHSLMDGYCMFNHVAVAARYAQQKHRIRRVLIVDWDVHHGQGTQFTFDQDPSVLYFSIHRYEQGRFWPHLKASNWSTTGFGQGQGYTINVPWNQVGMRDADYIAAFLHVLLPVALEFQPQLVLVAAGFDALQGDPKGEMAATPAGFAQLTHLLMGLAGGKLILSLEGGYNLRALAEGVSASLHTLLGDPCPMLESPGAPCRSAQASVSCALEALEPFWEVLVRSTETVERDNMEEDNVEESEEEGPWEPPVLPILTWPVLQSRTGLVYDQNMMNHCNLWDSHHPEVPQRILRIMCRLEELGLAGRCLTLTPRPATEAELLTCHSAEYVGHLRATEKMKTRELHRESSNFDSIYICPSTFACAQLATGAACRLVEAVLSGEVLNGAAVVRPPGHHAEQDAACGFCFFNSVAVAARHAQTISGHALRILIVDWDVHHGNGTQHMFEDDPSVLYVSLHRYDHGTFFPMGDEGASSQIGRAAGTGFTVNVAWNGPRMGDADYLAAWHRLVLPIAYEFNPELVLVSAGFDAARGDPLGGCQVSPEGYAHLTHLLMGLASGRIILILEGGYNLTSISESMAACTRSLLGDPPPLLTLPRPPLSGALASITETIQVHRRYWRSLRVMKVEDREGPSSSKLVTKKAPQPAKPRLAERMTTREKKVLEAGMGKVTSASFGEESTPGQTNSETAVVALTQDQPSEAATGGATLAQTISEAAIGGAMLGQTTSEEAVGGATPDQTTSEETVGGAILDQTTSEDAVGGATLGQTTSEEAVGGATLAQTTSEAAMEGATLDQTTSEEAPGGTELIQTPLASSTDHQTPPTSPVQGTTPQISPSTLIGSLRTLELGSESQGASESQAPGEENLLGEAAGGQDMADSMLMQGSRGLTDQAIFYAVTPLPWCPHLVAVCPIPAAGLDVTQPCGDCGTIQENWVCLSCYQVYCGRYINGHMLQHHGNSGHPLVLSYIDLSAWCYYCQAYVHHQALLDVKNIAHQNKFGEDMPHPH

Regarding `O=S1(=O)c2cc(-c3nnc(C(F)F)o3)ccc2CN1C(c1ccccn1)[C@H](O)c1ccccn1` (stereo partly drawn) [Compound 83], the “Remaining rate (NCF = 60 min)” value in data set [1] (setting [6]) is 84.68%. The “Remaining rate (T = 60 min)” value in data set [1] (with NADPH, 60 min) was 82.70%. In data set [1] (setting [7]), this molecule displayed a CLint scaled at 1 µM of 6.43 mL/min/kg and a half-life at 1 M of 4.51 h. For the same molecule, the Cmax in data set [2] (po, 10 mg/kg, read-out: C0/Cmax) stood at 12 µM. Also, in data set [2] (mice, IV 2 mg/kg), the AUC(0-inf) amounted to 8.78 µM·h, the AUC(0-t) came out at 8.61 µM·h, the MRT inf amounted to 2.06 h and the Vd is 1.01 L/kg. For the same molecule, in data set [2] (mice, IV 2 mg/kg), the CLz was found to be 7.82 mL/min/kg and the t½z is 1.493 h. Moreover, in data set [2] (mice, IV 2 mg/kg (C0)), the Cmax amounted to 5.27 µM. In data set [2] (mice, PO 10 mg/kg), the AUC(0-inf) was determined as 63.7 µM·h, the AUC(0-t) was found to be 50.5 µM·h, the Tmax stood at 0.5 h and the MRT inf was 4.57 h. In data set [2] (mice, PO 10 mg/kg), this molecule gave an F of 117.4% and a t½z of 3.323 h. In addition, in data set [3] (setting [8]), the CLint scaled at 1 µM was determined as 41.4 mL/min/kg and the half-life at 1 M came to 2.2 h. The “Remaining rate (NCF = 60 min)” value in data set [3] (setting [6]) is listed as 84.39%. Moreover, in data set [3] (with NADPH, 60 min), the “Remaining rate (T = 60 min)” value was 72.27%. In addition, the “Remaining rate (NCF = 60 min)” value in data set [4] (setting [6]) worked out at 88.49%. For the same molecule, the “Remaining rate (T = 60 min)” value in data set [4] (with NADPH, 60 min) is 36.99%. In data set [4] (setting [9]), this molecule returned a CLint scaled at 1 µM of 58.6 mL/min/kg and a half-life at 1 M of 0.706 h.
As for `O=C(N[C@@H]1CCCC[C@H]1N1Cc2ccc(-c3nnc(C(F)F)o3)cc2S1(=O)=O)N1CCCC1` [Compound 112], the IC50 against HDAC6 was determined as 0.141 µM. In other words, the sub-micromolar range.
In turn, `Cn1cc([C@@H](O)[C@H](c2cnn(C)c2)N2Cc3ccc(-c4nnc(C(F)F)o4)cc3S2(=O)=O)cn1` (single isomer, unassigned) [Compound 95j-A] displayed an IC50 against HDAC6 of 0.231 µM. Compared with the last molecule, the IC50 is about 1.6-fold higher.
The molecule `O=S(=O)(N[C@@H]1CCCC[C@H]1N1Cc2ccc(-c3nnc(C(F)F)o3)cc2S1(=O)=O)C1CC1` [Compound 4] had an IC50 against HDAC6 of 0.154 µM. The results for the concentration at 2 h in data set [5] (setting [10]) and in data set [5] (setting [11]) were 190 ng/mL and 2260 ng/mL, respectively. The partition ratio (Kp) at 2 h in data set [5] was 0.08.
On to `O=S1(=O)c2cc(-c3nnc(C(F)F)o3)ccc2CN1[C@@H]1CCCC[C@H]1O` [Compound 21], for which the IC50 at HDAC6 came to 0.742 µM.
In turn, `O=S1(=O)c2cc(-c3nnc(C(F)F)o3)ccc2CN1[C@H](c1ncccn1)[C@H](O)c1ncccn1` [Compound 103j-D] came in with an IC50 against HDAC6 of 0.231 µM.
With `O=S1(=O)c2cc(-c3nnc(C(F)F)o3)ccc2CN1[C@@H](c1cnccn1)[C@H](O)c1cnccn1` (single isomer, unassigned) [Compound 99j-A-B], the IC50 at HDAC6 was 0.0739 µM.
Regarding `O=S1(=O)c2cc(-c3nnc(C(F)F)o3)ccc2CN1[C@@H](c1ccccn1)[C@H](O)c1ccc(F)cn1` (single isomer, unassigned) [Compound 84j-A-B], the IC50 against HDAC6 came out at 0.0231 µM.
Same read-out and setting: the same measure for `O=S1(=O)c2cc(-c3nnc(C(F)F)o3)ccc2CN1[C@@H]1COCC[C@H]1O` [Compound 49]: 0.82 µM; for `O=S1(=O)c2cc(-c3nnc(C(F)F)o3)ccc2CN1[C@@H](c1cnccn1)[C@H](O)c1cnccn1` (single isomer, unassigned) [Compound 99j-A]: 0.148 µM.
With `CN(C)C(=O)N[C@@H]1CCCC[C@H]1N1Cc2ccc(-c3nnc(C(F)F)o3)cc2S1(=O)=O` [Compound 93], the IC50 against HDAC6 was determined as 0.133 µM. The concentration at 2 h in data set [5] (setting [10]) amounted to 27 ng/mL. The Kp at 2 h in data set [5] turned out to be 0.11. In data set [5] (setting [11]), the concentration at 2 h is 252 ng/mL. Besides, in data set [2] (po, 5 mg/kg, read-out: C0/Cmax), the Cmax is 3.41 µM. Besides, in data set [2] (mice, IV 1 mg/kg), the AUC(0-inf) is 1.08 µM·h, the AUC(0-t) is 1.07 µM·h, the MRT inf stood at 0.6 h and the Vd was determined as 1.9 L/kg. In data set [2] (mice, IV 1 mg/kg), this molecule had a CLz of 33.3 mL/min/kg and a t½z of 0.7 h. The Cmax in data set [2] (mice, IV 1 mg/kg (C0)) came to 2.11 µM. Moreover, in data set [2] (mice, PO 5 mg/kg), the AUC(0-inf) is 4.57 µM·h, the AUC(0-t) worked out at 4.56 µM·h, the Tmax amounted to 0.5 h and the MRT inf was 1.2 h. In data set [2] (mice, PO 5 mg/kg), this molecule yielded an F of 84.4% and a t½z of 0.7 h.
The molecule `Cn1cc(-c2ccccc2N2Cc3ccc(-c4nnc(C(F)F)o4)cc3S2(=O)=O)cn1` [Compound 72] showed an IC50 on HDAC6 of 0.399 µM.
